Assays:
[1] = tested on: isolated Rap1A-heterozygous cardiac myocytes; settings: combination with isoproterenol, waves resumed after washout
Experimental: Ventricular myocytes were isolated from male C57BL/6 control wild-type (WT) and Rap1A-heterozygous (Rap1a^+/−) mice. Whole hearts were cannulated and hung on a Langendorff apparatus and tissue treated for enzymatic digestion for 3-5 minutes. The ventricles were minced and myocytes were dissociated by trituration. Subsequently, the myocytes were filtered, centrifuged, and used for the studies within 6 hours of isolation. Calcium transients were measured by loading isolated myocytes with fluo 4-AM (10 μM) for 30 min, followed by an additional 30 min for intracellular deesterification. Cell fluorescence was measured by epifluorescence. The intracellular calcium concentration [Ca^2+]i of single cells was measured with excitation at 480±20 nm and emission at 535±25 nm. Data were expressed as ΔF/F0, where F is the fluorescence intensity, and F0 is the intensity at rest. Myocytes were stimulated at 1 Hz. Simultaneous measurement of shortening was also performed using edge detection. Data were expressed as cell shortening (μm). Myocytes were analyzed from 2-3 independent isolations per group.
Myocytes were analyzed from 2-3 independent isolations per group.

[2] = tested on: isolated ventricular myocytes; experiment: After-contractions protocol in isolated ventricular myocytes; format: cell-based, mice; settings: 5 s stimulation, counted 40 s after stimulation withdrawn
Experimental: FIG. 10 provides graphs showing that aftercontractions increase in heterozygous Rap1A myocytes. Further investigation of the spontaneous waves was performed using an “after-contractions” protocol by stimulating for 5 seconds and counting the number of after-contractions that occur 40 seconds after the stimulation is withdrawn. (A) Rap1A-heterozygous myocytes have increased after-contractions compared to control wild-type (WT) myocytes. (B) Inhibition of protein kinase C (PKC) by bisindolylmaleimide I (BIM, 1 μM) increases after-contractions in control wild-type (WT) and Rap1A-heterozygous myocytes. (C) Protein kinase C (PKC) activation by phorbol myristate acetate (PMA, 150 nM) leads to a decrease in after-contractions in Rap1A-heterozygous myocytes. (D) Summary data of WT/Rap1A-heterozygous+/− BIM (Inhibitor) and PMA (Activator). Both drugs were incubated in isolated ventricular myocytes before measurements were taken to activate or inhibit PKC.

Cc1cccc(C)c1OCC(C)N (stereo not shown) [Mexiletine]
After-transients / spontaneous calcium waves [1]: rescued

CN(C)CCCn1cc(C2=C(c3c[nH]c4ccccc34)C(=O)NC2=O)c2ccccc21 [bisindolylmaleimide I]
After-contractions ([2]; Rap1A-heterozygous myocytes, 1 μM): increases
After-contractions ([2]; control wild-type (WT) myocytes, 1 μM): increases

CCCCCCCCCCCCCC(=O)O[C@@H]1[C@@H](C)[C@@]2(O)[C@@H](C=C(CO)C[C@]3(O)C(=O)C(C)=C[C@@H]23)[C@@H]2C(C)(C)[C@]12OC(C)=O [phorbol myristate acetate]
After-contractions ([2]; Rap1A-heterozygous myocytes, 150 nM): decrease
